Tests used:
wild oat [1] = assay: Test B pre/postemergence wild oat; type: in vivo, Avena fatua; conditions: for Plant response rating, Wild oats: Rate 250 g/ha
Procedure, shortened: (§1)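 Herbicidal effect was estimated by eye on a ten-point control scale after plants spent twelve to sixteen days in a greenhouse following soil or foliar treatment. Foliar sprays targeted plants at one to four leaves; all doses were formulated in a non-phytotoxic solvent with surfactant.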

common groundsel = assay: Test D common groundsel; type: in vivo, Senecio vulgaris; conditions: Preemergence, 0 to 100 scale
Procedure, shortened: (§2)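 Scoring used a 0–100 visual injury scale, with 0 meaning no effect and 100 complete control, assessed 14–21 days after application alongside untreated pots. Preemergence treatments went onto sandy loam surfaces of separately potted seeds within a day of sowing.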

crabgrass = assay: Test B pre/postemergence crabgrass; type: in vivo, Digitaria sanguinalis
Procedure, shortened: as §1

blackgrass = assay: Test E blackgrass; type: in vivo, Alopecurus myosuroides; conditions: Preemergence
winter wheat [2] = assay: Test E winter wheat; type: in vivo, Triticum aestivum; conditions: Postemergence
Procedure, shortened: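 Plants were grown under normal greenhouse practice; for postemergence, in sandy loam soil mixed 60:40 with potting mix, treated at the 1- to 4-leaf stage. The compound was in a non-phytotoxic solvent carrying a surfactant. After roughly 21 to 28 days plants were scored visually against untreated plants.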

wild oat [3] = assay: Test E wild oat; type: in vivo, Avena fatua; conditions: Preemergence, 0 to 100 scale where 0 is no effect and 100 is complete control
Green foxtail [4] = assay: Test D green foxtail; type: in vivo
Procedure, shortened: as §2

winter wheat [5] = assay: Test E winter wheat; type: in vivo, Triticum aestivum; conditions: Preemergence
green foxtail [6] = assay: Test E green foxtail; type: in vivo, Setaria viridis; conditions: Preemergence
Alexandergrass = assay: Test D Alexandergrass; type: in vivo, Brachiaria plantaginea; conditions: Preemergence, 0 to 100 scale
Procedure, shortened: as §2

Italian ryegrass = assay: Test E Italian ryegrass; type: in vivo, Lolium multiflorum; conditions: Preemergence
wheat = assay: Test B pre/postemergence wheat; type: in vivo, Triticum aestivum; conditions: for Plant response rating, Wheat: Rate 250 g/ha
Procedure, shortened: as §1

goosegrass = assay: Test D goosegrass; type: in vivo, Eleusine indica; conditions: Preemergence, 0 to 100 scale
Procedure, shortened: as §2

rice = assay: Test B flood test rice; type: in vivo, Oryza sativa
Procedure, shortened: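 Each value is a visual injury score relative to controls, with 10 meaning complete control and 0 no effect. Evaluation took place twelve to sixteen days after the 2-leaf-stage plants were treated and kept in the greenhouse.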

winter barley = assay: Test E winter barley; type: in vivo, Hordeum vulgare; conditions: Preemergence
[7] = Postemergence, Rate 125 g/ha, scale of 0 to 10 where 0 is no effect and 10 is complete control
[8] = Preemergence, Rate 62 g/ha, scale 0 to 10 (0 no effect, 10 complete control)
[9] = Preemergence, Rate 125 g/ha, 0 is no effect, 10 is complete control
[10] = Preemergence, scale of 0 to 10 where 0 is no effect and 10 is complete control
[11] = Preemergence, Rate 500 g/ha, scale 0 to 10 (0 no effect, 10 complete control)
[12] = Rate 62 g/ha, Postemergence, scale of 0 to 10 where 0 is no effect and 10 is complete control
[13] = Postemergence, scale 0 to 10, 0 is no effect, 10 is complete control
[14] = Rate 500 g/ha, Postemergence, scale 0 to 10, 0 no effect, 10 complete control
[15] = Rate 16 g/ha, 0 no injury, 100 complete control
[16] = Rate 32 g/ha, 0 no injury, 100 complete control
[17] = Rate 64 g/ha, 0 no injury, 100 complete control
[18] = Rate 125 g/ha, 0 no injury, 100 complete control
[19] = Rate 500 g/ha, 0 to 100 scale where 0 is no effect and 100 is complete control
[20] = Rate 1000 g/ha, 0 to 100 scale where 0 is no effect and 100 is complete control
[21] = Rate 64 g/ha, Preemergence; 0 to 100 scale, 0 no injury, 100 complete control
[22] = Rate 125 g/ha, Preemergence; 0 to 100 scale, 0 no injury, 100 complete control

What does the source list for `CC(C)N(C(=O)n1oc(=O)n(C2CCCCC2)c1=O)c1ccc(F)cc1F` [Compound 115]?
Wild oats plant response rating (wild oat [1]; [7]): 0; Wild oats plant response rating (wild oat [1]; [8]): 0; Wild oats plant response rating (0 to 10 scale) (wild oat [1]; [9]): 0; Plant response rating, Wild oats (wild oat [1]; [10]): 0; Wild oats plant response rating (wild oat [1]; [11]): 4; Wild oats plant response rating (wild oat [1]; [12]): 0; Plant response rating, Wild oats (wild oat [1]; [13]): 0; Wild oats plant response rating (wild oat [1]; [14]): 0; Plant response rating, Com. groundsel (common groundsel; [15]): 0; Plant response rating, Com. groundsel (common groundsel; [16]): 0; Plant response rating, Com. groundsel (common groundsel; [17]): 10; Plant response rating, Com. groundsel (common groundsel; [18]): 10; Plant response rating, Com. groundsel (common groundsel; Rate 250 g/ha): 10; Plant response rating, Com. groundsel (common groundsel; Rate 500 g/ha): 98; Crabgrass plant response rating (crabgrass; [7]): 0; Crabgrass plant response rating (crabgrass; Postemergence, Rate 250 g/ha, scale 0 to 10, 0 no effect, 10 complete control): 2; Crabgrass plant response rating (crabgrass; [8]): 4; Plant response rating, Crabgrass (crabgrass; Preemergence, Rate 125 g/ha, scale 0 to 10 (0 no effect, 10 complete control)): 4; Plant response rating, Crabgrass (crabgrass; Preemergence, Rate 250 g/ha, scale of 0 to 10 where 0 is no effect and 10 is complete control): 7; Crabgrass plant response rating (crabgrass; [11]): 9; Crabgrass plant response rating (crabgrass; [12]): 0; Crabgrass plant response rating (crabgrass; [14]): 6; Plant response rating, Blackgrass (blackgrass; Rate 250 g/ha, 0 to 100 scale): 30; Plant response rating, Blackgrass (blackgrass; [19]): 50; Plant response rating, Blackgrass (blackgrass; [20]): 60; Plant response rating, Wheat (winter) (winter wheat [2]; Rate 250 g/ha, 0 to 100 scale (0 no effect, 100 complete control)): 10; Plant response rating, Wheat (winter) (winter wheat [2]; Rate 1000 g/ha, 0 to 100 scale, 0 is no effect and 100 is complete control): 40; Plant response rating, Wheat (winter) (winter wheat [2]; Rate 500 g/ha, 0 to 100 scale, 0 no effect, 100 complete control): 20; Plant response rating, Wild oat (wild oat [3]; Rate 500 g/ha): 50; Plant response rating, Wild oat (wild oat [3]; Rate 1000 g/ha): 60; Plant response rating, Green foxtail (Green foxtail [4]; Preemergence; Rate 16 g/ha; 0 to 100 scale, 0 no injury, 100 complete control): 0; Plant response rating, Green foxtail (Green foxtail [4]; Preemergence; Rate 32 g/ha; 0 to 100 scale, 0 no injury, 100 complete control): 70; Plant response rating, Green foxtail (Green foxtail [4]; Rate 16 g/ha; Preemergence; 0 to 100 scale, 0 no injury, 100 complete control): 0; Plant response rating, Green foxtail (Green foxtail [4]; Rate 32 g/ha; Preemergence; 0 to 100 scale, 0 no injury, 100 complete control): 75; Green foxtail plant response rating (Green foxtail [4]; [21]): 85; Plant response rating, Green foxtail (Green foxtail [4]; [21]): 85; Green foxtail plant response rating (Green foxtail [4]; [22]): 100; Plant response rating, Green foxtail (Green foxtail [4]; [22]): 100; Plant response rating, Green foxtail (Green foxtail [4]; Rate 250 g/ha; Preemergence; 0 to 100 scale): 100; Plant response rating, Green foxtail (Green foxtail [4]; Rate 500 g/ha, Preemergence; 0 to 100 scale): 100; Plant response rating, Wheat (winter) (winter wheat [5]; Rate 250 g/ha, 0 to 100 scale): 5; Plant response rating, Wheat (winter) (winter wheat [5]; [19]): 10; Plant response rating, Wheat (winter) (winter wheat [5]; [20]): 20; Plant response rating, Green foxtail (green foxtail [6]; Rate 250 g/ha, 0 to 100 scale): 65; Plant response rating, Green foxtail (green foxtail [6]; [19]): 70; Plant response rating, Green foxtail (green foxtail [6]; [20]): 90; Plant response rating, Alexandergrass (Alexandergrass; [15]): 0; Plant response rating, Alexandergrass (Alexandergrass; [16]): 20; Plant response rating, Alexandergrass (Alexandergrass; [17]): 50; Plant response rating, Alexandergrass (Alexandergrass; [18]): 75; Plant response rating, Alexandergrass (Alexandergrass; Rate 250 g/ha): 85; Plant response rating, Alexandergrass (Alexandergrass; Rate 500 g/ha): 100; Plant response rating, I. Ryegrass (Italian ryegrass; Rate 250 g/ha, 0 to 100 scale): 45; Plant response rating, I. Ryegrass (Italian ryegrass; [19]): 50; Plant response rating, I. Ryegrass (Italian ryegrass; [20]): 80; Wheat plant response rating (wheat; [7]): 0; Wheat plant response rating (wheat; [8]): 0; Wheat plant response rating (0 to 10 scale) (wheat; [9]): 0; Plant response rating, Wheat (wheat; [10]): 0; Wheat plant response rating (wheat; [11]): 0; Wheat plant response rating (wheat; [12]): 0; Plant response rating, Wheat (wheat; [13]): 0; Wheat plant response rating (wheat; [14]): 0; Plant response rating, Goosegrass (goosegrass; [15]): 20; Plant response rating, Goosegrass (goosegrass; [16]): 85; Plant response rating, Goosegrass (goosegrass; [17]): 90; Plant response rating, Goosegrass (goosegrass; [18]): 98; Plant response rating, Goosegrass (goosegrass; Rate 250 g/ha): 100; Plant response rating, Goosegrass (goosegrass; Rate 500 g/ha): 100; Rice plant response rating (rice; Postemergence (flood test species), Rate 125 g/ha, scale of 0 to 10 where 0 is no effect and 10 is complete control): 0; Rice plant response rating (rice; Rate 62 g/ha, Postemergence section, flood test species, scale of 0 to 10 where 0 is no effect and 10 is complete control): 0; Plant response rating, Rice (rice; Rate 250 g/ha, Postemergence (flood test), scale 0 to 10, 0 is no effect, 10 is complete control): 0; Rice plant response rating (rice; Rate 500 g/ha, listed under Postemergence (flood test species), scale 0 to 10, 0 no effect, 10 complete control): 0; Plant response rating, Barley (winter) (winter barley; Rate 250 g/ha, 0 to 100 scale): 10; Plant response rating, Barley (winter) (winter barley; [19]): 20; Plant response rating, Barley (winter) (winter barley; [20]): 30
